Results as given in patent US11925655B2, “FAP-activated therapeutic agents, and uses related thereto” (Bach Biosciences, LLC, priority 2014, dated 2024).
Read-outs that look alike come from different tables or passages of the source.

Columns and labels:
[1] = tested on: HEK-Mock cells; assay: CellTiter-Blue cell viability assay with HEK-Mock cells; format: cell-based; settings: Homo sapiens, 72 h
[2] = tested on: HEK-mFAP cells; assay: CellTiter-Blue cell viability assay with HEK-mFAP cells; format: cell-based, human; settings: Homo sapiens, 72 h
[3] = tested on: MCF-7; assay: CellTiter-Blue cell viability assay: MCF-7; format: cell-based; settings: Homo sapiens, MCF7, 5057DOX assay 5, 72 hour incubation
[4] = tested on: OVCAR-3; assay: CellTiter-Blue cell viability assay: OVCAR-3; format: cell-based; settings: Homo sapiens
[5] = tested on: SK-OV-3; assay: CellTiter-Blue cell viability assay: SK-OV-3; format: cell-based; settings: Homo sapiens
[6] = target: T1, FAP (Homo sapiens, UniProt Q12884); assay: FAP digest of 5057DOX (kinetics); format: biochemical
T1 sequence (Q12884 1-760): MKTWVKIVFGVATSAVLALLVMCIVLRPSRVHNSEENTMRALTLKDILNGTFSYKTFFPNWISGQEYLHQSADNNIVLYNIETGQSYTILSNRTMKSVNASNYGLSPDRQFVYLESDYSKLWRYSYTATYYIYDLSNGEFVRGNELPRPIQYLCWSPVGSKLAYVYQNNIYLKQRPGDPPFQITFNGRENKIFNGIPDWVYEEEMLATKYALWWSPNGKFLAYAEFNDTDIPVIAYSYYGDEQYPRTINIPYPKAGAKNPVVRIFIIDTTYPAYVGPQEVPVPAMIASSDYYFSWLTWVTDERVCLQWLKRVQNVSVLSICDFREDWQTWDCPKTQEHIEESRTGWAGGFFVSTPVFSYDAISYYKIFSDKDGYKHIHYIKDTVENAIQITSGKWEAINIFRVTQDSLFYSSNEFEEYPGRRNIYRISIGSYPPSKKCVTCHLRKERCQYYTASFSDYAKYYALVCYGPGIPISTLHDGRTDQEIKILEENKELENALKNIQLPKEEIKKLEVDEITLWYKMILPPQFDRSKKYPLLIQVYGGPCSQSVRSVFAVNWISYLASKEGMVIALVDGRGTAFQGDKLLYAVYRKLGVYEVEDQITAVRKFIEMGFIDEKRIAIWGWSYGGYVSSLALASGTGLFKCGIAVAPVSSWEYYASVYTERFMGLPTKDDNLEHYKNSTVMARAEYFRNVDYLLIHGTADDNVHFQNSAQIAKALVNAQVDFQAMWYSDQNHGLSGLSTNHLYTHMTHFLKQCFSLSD

[7] = target: T1, FAP; assay: Selectivity of FAP over PREP (5057DOX activation by recombinant enzyme); format: biochemical; settings: 240 nM 5057DOX, 12, 24 or 48 nM recombinant enzyme, 37° C., FIG. 12
Method: Recombinant enzyme (FAP or PREP) was combined, at reaction concentration of 12 nM, 24 nM, or 48 nM, with 240 nM 5057DOX in FAP buffer (50 mM Tris-HCl, pH 7.4, 140 mM NaCl) and incubated at 37° C. Reactions were stopped at 0, 10, 20, or 30 minutes by addition of equal volume of 10 μM Val-boroPro (FAP inhibitor). Doxorubicin was measured by liquid chromatography/mass spectroscopy (LCMS).

[8] = tested on: HEK-Mock; assay: Cytotoxicity against tumor lines: HEK-Mock; format: cell-based; settings: Homo sapiens, compound alone
Method: (§1) Cells from various tumor-derived cell lines were incubated with doxorubicin or 3099DOX, the latter in the presence or absence of FAP, and the EC50 for each was determined.

[9] = tested on: HEK-mFAP; assay: Cytotoxicity against tumor lines: HEK-mFAP; format: cell-based; settings: Homo sapiens, compound alone
Method: as §1

[10] = tested on: BxPC-3; assay: Cytotoxicity against tumor lines: BxPC-3; format: cell-based; settings: Homo sapiens, compound alone
Method: as §1

[11] = tested on: HPAF-II; assay: Cytotoxicity against tumor lines: HPAF-II; format: cell-based; settings: Homo sapiens, compound alone
Method: as §1

[12] = tested on: HT-29; assay: Cytotoxicity against tumor lines: HT-29; format: cell-based; settings: Homo sapiens, compound alone
Method: as §1

[13] = 5057DOX assay 2, 72 hour incubation, read-out: EC50 (prodrug + 25 nM PREP)
[14] = 5057DOX assay 2, 72 hour incubation, read-out: EC50 (prodrug + 100 uM 2054-9)
[15] = 5057DOX assay 2, 72 hour incubation, read-out: EC50 (prodrug alone)
[16] = 5057DOX assay 3, 72 hour incubation, read-out: EC50 (prodrug + 100 uM 2054-9)
[17] = 5057DOX assay 3, 72 hour incubation, read-out: EC50 (prodrug + 100 uM 3099-15)
[18] = 5057DOX assay 3, 72 hour incubation, read-out: EC50 (prodrug alone)
[19] = 5057DOX assay 4, 72 hour incubation, read-out: EC50 (prodrug + 100 uM 5057)
[20] = 5057DOX assay 4, 72 hour incubation, read-out: EC50 (prodrug alone)
[21] = 5057DOX assay 5, 72 hour incubation, read-out: EC50 (prodrug + 25 nM FAP)
[22] = 5057DOX assay 5, 72 hour incubation, read-out: EC50 (prodrug + 100 uM 5057)
[23] = 5057DOX assay 5, 72 hour incubation, read-out: EC50 (prodrug alone)
[24] = 5057DOX assay 2, 72 hour incubation, read-out: EC50 (doxorubicin alone)
[25] = 5057DOX assay 3, 72 hour incubation, read-out: EC50 (doxorubicin alone)
[26] = 5057DOX assay 4, 72 hour incubation, read-out: EC50 (doxorubicin alone)
[27] = 5061DOX assay 1, 72 hour incubation, read-out: EC50 (doxorubicin alone)
[28] = 5061DOX assay 2, 72 hour incubation, read-out: EC50 (doxorubicin alone)

Q: Which results are given for `COc1cccc2c1C(=O)c1c(O)c3c(c(O)c1C2=O)C[C@@](O)(C(=O)CO)C[C@@H]3O[C@H]1C[C@H](NC(=O)[C@@H]2CC(F)(F)CN2C(=O)CNC(=O)c2ccnc3ccccc23)[C@H](O)[C@H](C)O1` [Compound 5057DOX]?
A: EC50 ([1]; 5057DOX assay 1, 72 hour incubation, read-out: EC50 (prodrug + 25 nM FAP)): 0.036 µM; EC50 ([1]; 5057DOX assay 1, 72 hour incubation, read-out: EC50 (prodrug + 25 nM PREP)): 0.25 µM; EC50 ([1]; 5057DOX assay 1, 72 hour incubation, read-out: EC50 (prodrug alone)): 0.48 µM; EC50 ([1]; 5057DOX assay 2, 72 hour incubation, read-out: EC50 (prodrug + 25 nM FAP)): 0.026 µM; EC50 [1, 13]: 0.22 µM; EC50 [1, 14]: 9.8 µM; EC50 [1, 15]: 0.46 µM; EC50 [1, 16]: > 10 µM; EC50 [1, 17]: > 100 µM; EC50 [1, 18]: 2.3 µM; EC50 [1, 19]: > 100 µM; EC50 [1, 20]: 1.1 µM; EC50 [2, 13]: 0.11 µM; EC50 [2, 14]: 0.74 µM; EC50 ([2]; 5057DOX assay 2, 72 hour incubation, read-out: EC50 (prodrug + 100 uM 3099-15)): > 10 µM; EC50 [2, 15]: 0.14 µM; EC50 [2, 16]: 5.3 µM; EC50 [2, 17]: > 100 µM; EC50 [2, 18]: 0.6 µM; EC50 [2, 19]: > 100 µM; EC50 [2, 20]: 0.77 µM; EC50 ([2]; 5057DOX assay 8, 72 hour incubation, read-out: EC50 (prodrug + 100 uM 5057)): > 100 µM; EC50 ([2]; 5057DOX assay 8, 72 hour incubation, read-out: EC50 (prodrug alone)): 1.1 µM; EC50 ([3]; read-out: EC50 (prodrug + 25 nM FAP)): 23 µM; EC50 ([3]; read-out: EC50 (prodrug + 100 uM 5057)): > 100 µM; EC50 ([3]; read-out: EC50 (prodrug alone)): > 100 µM; EC50 [4, 21]: 1 µM; EC50 [4, 22]: > 100 µM; EC50 [4, 23]: > 100 µM; EC50 [5, 21]: 0.14 µM; EC50 [5, 22]: 56 µM; EC50 [5, 23]: 0.83 µM; Kcat(Vmax/[E]) ([6]; 5057DOX assay 6, [FAP] 4.00 × 10^−9M): Kcat(Vmax/[E]) 1.30 sec^−1; Vmax ([6]; 5057DOX assay 7, [FAP] 1 nM, Dox standards, Daunorubicin internal standard): Vmax 9.80 × 10^−10M/sec; activation by FAP as compared to PREP [7]: selectively activated by FAP as compared to PREP

Q: With `COc1cccc2c1C(=O)c1c(O)c3c(c(O)c1C2=O)C[C@@](O)(C(=O)CO)C[C@@H]3O[C@H]1C[C@H](N)[C@H](O)[C@H](C)O1` [doxorubicin, reference compound] as the compound, how does the EC50 [8] read?
A: Its EC50 is 0.05 µM.

Q: What about the EC50 [9] of the same compound?
A: Its EC50 is 0.2 µM.

Q: And the EC50 [10]?
A: Its EC50 is 3.1 µM.

Q: And the EC50 [11]?
A: The EC50 was 2 µM.

Q: What about the EC50 [12] of the same compound?
A: The EC50 was 0.4 µM.

Q: And the EC50 ([1]; 5057DOX assay 1, 72 hour incubation, read-out: EC50 (doxorubicin alone))?
A: Its EC50 is 0.036 µM.

Q: What about the EC50 [1, 24] of the same compound?
A: Its EC50 is 0.034 µM.

Q: What about the EC50 [1, 25] of the same compound?
A: Its EC50 is 0.095 µM.

Q: And the EC50 [1, 26]?
A: The EC50 was 0.092 µM.

Q: And the EC50 [1, 27]?
A: Its EC50 is 0.092 µM.

Q: And the EC50 [2, 24]?
A: Its EC50 is 0.059 µM.

Q: And the EC50 [2, 25]?
A: Its EC50 is 0.24 µM.

Q: And the EC50 [2, 26]?
A: The EC50 was 0.42 µM.

Q: And the EC50 ([2]; 5057DOX assay 8, 72 hour incubation, read-out: EC50 (doxorubicin))?
A: The EC50 was 0.4 µM.

Q: And the EC50 [2, 27]?
A: The EC50 was 0.42 µM.

Q: And the EC50 ([2]; 5107DOX assay, 72 hour incubation, read-out: EC50 (doxorubicin))?
A: Its EC50 is 0.39 µM.

Q: And the EC50 ([3]; read-out: EC50 (doxorubicin alone))?
A: Its EC50 is 54 µM.

Q: And the EC50 [4, 28]?
A: Its EC50 is 1.7 µM.

Q: And the EC50 [5, 28]?
A: Its EC50 is 0.44 µM.
